# Laboratory results: article PMC2739411 (Anesthesiology, 2009)
# Target: γ-aminobutyric acid type A (GABAA) receptor α1β2γ2L (Homo sapiens, UniProt P14867+P47870)
# Assay: two-electrode voltage clamp in oocytes
# Assay type: cell-based
# Details: read-out: % enhancement of EC5-10 GABA current at 8 μM
# Sequence of γ-aminobutyric acid type A (GABAA) receptor α1β2γ2L (P47870 26-512): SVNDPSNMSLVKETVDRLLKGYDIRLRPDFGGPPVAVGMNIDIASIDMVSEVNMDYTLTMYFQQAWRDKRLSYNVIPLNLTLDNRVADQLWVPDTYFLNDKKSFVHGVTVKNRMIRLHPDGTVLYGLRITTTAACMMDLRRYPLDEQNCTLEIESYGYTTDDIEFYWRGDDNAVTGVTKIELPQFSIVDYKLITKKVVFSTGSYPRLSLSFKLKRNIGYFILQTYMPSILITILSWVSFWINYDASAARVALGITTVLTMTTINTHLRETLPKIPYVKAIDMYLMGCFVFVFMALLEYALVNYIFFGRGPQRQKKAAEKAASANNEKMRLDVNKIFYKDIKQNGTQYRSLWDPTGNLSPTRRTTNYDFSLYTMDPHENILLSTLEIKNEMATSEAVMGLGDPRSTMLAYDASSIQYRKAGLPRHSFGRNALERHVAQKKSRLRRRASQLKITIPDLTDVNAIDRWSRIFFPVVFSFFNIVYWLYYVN
# Sequence of γ-aminobutyric acid type A (GABAA) receptor α1β2γ2L (P14867 28-456): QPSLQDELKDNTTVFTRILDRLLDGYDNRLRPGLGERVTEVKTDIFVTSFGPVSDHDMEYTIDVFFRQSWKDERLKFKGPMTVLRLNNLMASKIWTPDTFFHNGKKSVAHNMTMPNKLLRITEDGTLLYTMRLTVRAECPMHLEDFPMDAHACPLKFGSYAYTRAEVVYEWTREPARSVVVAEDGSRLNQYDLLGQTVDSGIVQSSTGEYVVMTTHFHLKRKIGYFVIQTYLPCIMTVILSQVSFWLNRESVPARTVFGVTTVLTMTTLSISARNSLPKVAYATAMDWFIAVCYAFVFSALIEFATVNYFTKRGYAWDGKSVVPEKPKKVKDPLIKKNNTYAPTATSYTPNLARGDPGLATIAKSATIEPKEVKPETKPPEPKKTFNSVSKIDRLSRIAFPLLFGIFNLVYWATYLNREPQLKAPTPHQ
# Sequence of γ-aminobutyric acid type A (GABAA) receptor α1β2γ2L (P18507 40-475 partner): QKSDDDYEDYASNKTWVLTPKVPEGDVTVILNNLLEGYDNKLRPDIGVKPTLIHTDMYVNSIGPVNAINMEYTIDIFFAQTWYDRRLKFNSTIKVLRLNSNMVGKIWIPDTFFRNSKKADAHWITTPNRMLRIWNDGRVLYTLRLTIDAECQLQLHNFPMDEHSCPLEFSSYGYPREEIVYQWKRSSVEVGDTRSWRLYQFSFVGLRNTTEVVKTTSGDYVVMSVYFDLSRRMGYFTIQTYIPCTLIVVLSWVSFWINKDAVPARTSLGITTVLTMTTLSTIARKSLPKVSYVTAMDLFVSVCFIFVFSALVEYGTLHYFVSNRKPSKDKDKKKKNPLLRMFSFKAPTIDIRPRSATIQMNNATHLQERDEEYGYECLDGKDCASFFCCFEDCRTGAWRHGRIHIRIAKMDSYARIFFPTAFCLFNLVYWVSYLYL
compound,measurement,value
"COC(=O)CCOC(=O)c1cncn1[C@H](C)c1ccccc1 [compound 3, (R)-3-methoxy-3-oxopropyl1-(1-phenylethyl)-1H-imidazole-5-carboxylate]",activation at 8 µM,450 ± 130%
